Laboratory results published in patent US20250250582A1, “Plant Cells and Plants Modified to Increase Herbicide Resistance and Stress Tolerance and Methods of Using the Same” (The Board of Trustees of the University of Arkansas, priority 2018, published 2025).
Several values for one entry are separate records, joined by “and”; a condition that tells them apart may be missing. Equal values may be shown once.

Key:
[1] = test system: multiple-resistant E. colona (ECO-R); assay: RNA-sequencing differential gene expression, herbicide-treated vs nontreated ECO-R; conditions: 24 h
Text: Pure-line generated seed of each accession were germinated in pots containing potting soil within a temperature/light controlled growth chamber set to a 14-hr day length, 33 C day temperature, and 24 C night time to simulate environmental conditions early in the rice growing season. A single plant was maintained in each of the pots and used for the treatments; two pots were used as individual biological replicates. […] Pots for each of the respective treatments were labeled as either ECO-R/S-T for the treated samples and ECO-R/S-N for the non-treated counterpart. To minimize the effect that the sprayer may play in the application, both plants of the ECO-R and ECO-S were treated at the same time. After approximately 30 minutes, allowing for the plants to dry, the treated and non-treated plants of both accessions were moved back into the growth chamber. Precisely 24-hours after application, the aboveground portion of each of the plants were removed and immediately frozen in liquid nitrogen to cease all biological function. Samples were then transferred to RNAlater™-ICE (Invitrogen, Carlsbad CA, USA) for shipment to the Clemson University Genomics Institute (CUGI), in Clemson, South Carolina.
RNA was extracted from the young leaf tissues of both replications for the ECO-R and ECO-S, T and N samples, at Clemson University. Total RNA was extracted with a kit according to the manufactures instructions. The extracted RNA was treated with DNase (Invitrogen, Calsbad, CA, USA) to remove any DNA contamination prior to further processing. The samples were prepared for sequencing by CUGI. For library preparation, the TruSeq Stranded Total RNA kit (Illumina Inc., San Diego, CA, USA) was used according to the instructions provided by the manufacturer to produce a paired-end library for sequencing. Ribosomal RNA was removed using target-specific oligonucleotides paired with rRNA removal beads, removing all cytoplasmic and mitochondrial rRNA that may result in poor quality results. RNA was fragmented and reverse transcribed to cDNA using random primers, followed by a second strand cDNA synthesis. Each fragment is then ligated with an additional ‘A’ and an adapter for sequencing. The PCR enriched product is then used to create the final cDNA library. All samples were sequenced on an Illumina Hiseq 2500 platform housed in the Holdings Cancer Center at the Medical University of South Carolina, Charleston, SC, USA. Samples, regardless of treatments or replication were ran across three lanes to reduce sequencing errors from the equipment. The resulting data were processed by CUGI.
A de novo transcriptome was assembled from the treatments described for this experiment as well as several treatments, which included herbicides profiled in ECO-R. The treatments were applied to both ECO-R and ECO-S samples with two replications as described previously. In total, 20 individual plants, from both the ECO-R and ECO-S accessions, as well as T and NT samples, were used for the assembly. The transcriptome was assembled using the Trinity RNA-Seq pipeline (Broad Institute, Cambridge, MA, USA). Raw data were assessed for quality using FastQC (Babraham Institute, Cambridge, UK) and then processed to remove adapter sequences and low quality bases using a sliding window method. The processed data were then rerun using FastQC to ensure high quality reads. Using the TrinityRNASeq 2.2.0 software, the samples were normalized, by replication, using a coverage size of 100 and kmer of 32. The normalized reads were then assembled as transcripts and genes using Trinity with the stranded library set as the default.

[2] = test system: multiple-resistant E. colona (ECO-R); assay: Herbicide resistance profile of ECO-R; assay type: in vivo, Echinochloa colona; conditions: data not shown
Text: (§1) Beginning in 2010, through the 2016 cropping cycle, Echinochloa spp. from throughout the rice producing counties of Arkansas, USA, located along the Mississippi River were sampled for a survey of the current status of herbicide resistance. Seeds were bulk sampled from plants that had matured in rice and soybean production fields, which had survived at least one herbicide application, were collected and sent to the University of Arkansas Altheimer Laboratory in Fayetteville for characterization and evaluation of herbicide resistance to common rice herbicides. […] From this screening program, two populations of E. colona were selected for use in this experiment. […] To establish inbred and homozygous accessions for the experiment, a single plant, verified as resistant/susceptible of ECO-R and ECO-S were grown in isolation to produce seed for further experiments.
Accession source and population profiling. From 2010 to 2016, the University of Arkansas weed physiology group has been collecting putative herbicide-resistant Echinochloa populations from rice production fields throughout the state of Arkansas. […] Collections took place in the late summer to early fall prior to rice harvest; these accessions were bulk sampled by in-field location and farm, with field histories collected when possible. All of the samples were submitted to the University of Arkansas Altheimer Laboratory for assessment of their resistance profile and characterized according to their species. […] Populations with unique profiles and of interest for further research were then grown in isolation to produce pureline seed. […] Another accession, E. colona susceptible (ECO-S), was also selected and grown in isolation. This accession was selected because of its similar cropping history and geographic location, as well as its high level of susceptibility to the herbicides of interest.

[3] = test system: susceptible E. colona (ECO-S); assay: Herbicide resistance profile of ECO-S; assay type: in vivo, Echinochloa colona
Text: as §1
Accession source and population profiling. From 2010 to 2016, the University of Arkansas weed physiology group has been collecting putative herbicide-resistant Echinochloa populations from rice production fields throughout the state of Arkansas. […] Collections took place in the late summer to early fall prior to rice harvest; these accessions were bulk sampled by in-field location and farm, with field histories collected when possible. […]

SMILES: CCC(=O)Nc1ccc(Cl)c(Cl)c1 [propanil]
- ABC transporter C family member 10 Fold Change ([1]; ECO-R-T vs ECO-R-N): 7.4 fold
- ACC oxidase fold change ([1]; ECO-R-T vs ECO-R-N): −4.5 fold
- ACCase 2 fold change ([1]; ECO-R-T vs ECO-R-N): −10.2 fold
- ACCase fold change ([1]; ECO-R-T vs ECO-R-N): −9.7 fold
- ADP sugar pyrophosphatase fold change ([1]; ECO-R-T vs ECO-R-N): −7.2 fold
- Beta-glucosidase 22 fold change ([1]; ECO-R-T vs ECO-R-N): 3.6 fold
- CYP72A11 Fold Change ([1]; ECO-R-T vs ECO-R-N): 3.1 fold
- CYP72A13 Fold Change ([1]; ECO-R-T vs ECO-R-N): 3.8 fold
- CYP72A15 Fold Change ([1]; ECO-R-T vs ECO-R-N): 2.6 fold and 3.4 fold and 2.9 fold
- CYP89A2 Fold Change ([1]; ECO-R-T vs ECO-R-N): 2.5 fold and 3.8 fold and 3.6 fold
- CYP709B1 Fold Change ([1]; ECO-R-T vs ECO-R-N): 7.0 fold
- ERF7 fold change ([1]; ECO-R-T vs ECO-R-N): 6.7 fold
- ERF060 fold change ([1]; ECO-R-T vs ECO-R-N): 2.1 fold
- GST23 Fold Change ([1]; ECO-R-T vs ECO-R-N): 6.7 fold
- GSTU17 fold change ([1]; ECO-R-T vs ECO-R-N): 7.9 fold
- NADH-cytochrome b5 reductase proteins fold change ([1]; ECO-R-T vs ECO-R-N): < −7.4 fold
- NADP-dependent malic enzyme fold change ([1]; ECO-R-T vs ECO-R-N): −9.3 fold
- Stress enhanced protein 2 fold change ([1]; ECO-R-T vs ECO-R-N): 2.5 fold
- UGT73C2 Fold Change ([1]; ECO-R-T vs ECO-R-N): 4.7 fold
- UGT73D1 fold change ([1]; ECO-R-T vs ECO-R-N): 5.3 fold and 6.9 fold and 4.8 fold
- UGT73E1 fold change ([1]; ECO-R-T vs ECO-R-N): 3.0 fold
- UGT74G1 Fold Change ([1]; ECO-R-T vs ECO-R-N): 4.6 fold and 4.5 fold
- UGT75D1 fold change ([1]; ECO-R-T vs ECO-R-N): 7.4 fold
- UGT83A1 Fold Change ([1]; ECO-R-T vs ECO-R-N): 2.3 fold
- acetyl-coenzyme A synthetase fold change ([1]; ECO-R-T vs ECO-R-N): −8.4 fold
- disease resistance protein RPM1 fold change ([1]; ECO-R-T vs ECO-R-N): 7.1 fold
- ferredoxin 6 fold change ([1]; ECO-R-T vs ECO-R-N): < −2.4 fold
- fructose-1,6-bisphosphatase fold change ([1]; ECO-R-T vs ECO-R-N): −9.3 fold
- glutamine synthetase fold change ([1]; ECO-R-T vs ECO-R-N): −10.5 fold
- malate dehydrogenase fold change ([1]; ECO-R-T vs ECO-R-N): −10.8 fold
- peroxidase 5 fold change ([1]; ECO-R-T vs ECO-R-N): −3.1 fold
- phenolic glucoside malonyltransferase 1 fold change ([1]; ECO-R-T vs ECO-R-N): −3.5 fold
- pyruvate dehydrogenase E1 subunit fold change ([1]; ECO-R-T vs ECO-R-N): < −10.4 fold
- pyruvate phosphate dikinase fold change ([1]; ECO-R-T vs ECO-R-N): −12 fold
- ubiquinol cytochrome-c reductase complex core protein fold change ([1]; ECO-R-T vs ECO-R-N): < −8.6 fold
- ATP synthase subunit(s) fold change ([1]; ECO-R-T vs ECO-R-N, repressed): < −10 fold
- TPS6 repression ([1]; ECO-R-T vs ECO-R-N, repressed): 6.1 fold
- sugar transporter ERD6-like 8 repression ([1]; ECO-R-T vs ECO-R-N, repressed): 4.2 fold
- sugar transporter SWEET2a repression ([1]; ECO-R-T vs ECO-R-N, repressed): 3.8 fold
- heat shock proteins fold change ([1]; ECO-R-T vs ECO-R-N, repressed by as much as): ≤ −9.9 fold
- CYP72A14 fold induction ([1]; Echinochloa colona, in vivo): ~3 fold
- level of resistance [2]: > 8 × field dose
- tolerance observed ([3]; ECO-S (Example 1)): approximately twice
- tolerance observed ([3]; ECO-S (Example 2)): ~3 × field dose
